# Experimental data published in ChEMBL document CHEMBL4610050, “Development of novel NLRP3-XOD dual inhibitors for the treatment of gout” (Bioorg Med Chem Lett, 2020).
# Active and inactive are the calls of the source. The calls are words filed in the database; no cut-off is given here.
# What was measured:
# [1] = target: T1, Xanthine dehydrogenase/oxidase (Homo sapiens, UniProt P47989); experiment: Inhibition of xanthine oxidase (unknown origin)
# Rattus norvegicus [2] = species on record: Rattus norvegicus; experiment: Antiarthritic activity against MSU-induced acute gout arthritis rat model assessed as degree of ankle joint swelling after 2 hrs (reference value: 7.5 +/- 1.6); format: functional
# Rattus norvegicus [3] = species on record: Rattus norvegicus; experiment: Antiarthritic activity against MSU-induced acute gout arthritis rat model assessed as degree of ankle joint swelling after 4 hrs (reference value: 8.8 +/- 1.7); format: functional
# Rattus norvegicus [4] = species on record: Rattus norvegicus; experiment: Antiarthritic activity against MSU-induced acute gout arthritis rat model assessed as degree of ankle joint swelling after 8 hrs (reference value: 7.8 +/- 1.6); format: functional
# Rattus norvegicus [5] = species on record: Rattus norvegicus; experiment: Antiarthritic activity against MSU-induced acute gout arthritis rat model assessed as degree of ankle joint swelling after 24 hrs (reference value: 5.6 +/- 1.8); format: functional
# Rattus norvegicus [6] = species on record: Rattus norvegicus; experiment: Antiarthritic activity in rat at model of acute gout arthritis assessed as effect on MSU-induced ankle joint swelling after 24 hrs (reference value: 5.6 +/- 1.8); format: functional
# Rattus norvegicus [7] = species on record: Rattus norvegicus; experiment: Antiarthritic activity against MSU-induced acute gout arthritis rat model assessed as degree of ankle joint swelling after 48 hrs (reference value: 3.4 +/- 0.5); format: functional
# Rattus norvegicus [8] = experiment: Inhibition of MSU-induced NLRP3 protein expression in synovial tissue of MSU-induced acute gout arthritis rat model at 10 mg/kg by western blot analysis; format: functional, organism-based
# Rattus norvegicus [9] = experiment: Inhibition of MSU-induced ASC protein expression in synovial tissue of MSU-induced acute gout arthritis rat model at 10 mg/kg by western blot analysis; format: functional, organism-based
# Rattus norvegicus [10] = experiment: Inhibition of MSU-induced caspase-1 protein expression in synovial tissue of MSU-induced acute gout arthritis rat model at 10 mg/kg by western blot analysis; format: functional, organism-based
# [11] = target: T1, Xanthine dehydrogenase/oxidase; experiment: Competitive inhibition of xanthine oxidase (unknown origin) by Lineweaver-Burk plot analysis
# [12] = target: NACHT, LRR and PYD domains-containing protein 3 (Homo sapiens, UniProt Q96P20); experiment: Inhibition of NLRP3 in human THP1 cells assessed as inhibition of MSU-induced IL-1beta production; format: cell-based, THP-1
# Mus musculus [13] = experiment: Antiarthritic activity in potassium oxonate-induced hyperuricemia mouse model assessed as reduction in uric acid level in serum at 5 to 20 mg/kg; format: functional, organism-based
# Mus musculus [14] = experiment: In vivo inhibition of xanthine oxidase in potassium oxonate-induced hyperuricemia mouse model assessed as reduction in enzyme activity in liver at 5 mg/kg relative to control; format: functional
# Mus musculus [15] = experiment: In vivo inhibition of xanthine oxidase in potassium oxonate-induced hyperuricemia mouse model assessed as reduction enzyme activity in liver at 10 mg/kg relative to control; format: functional
# Mus musculus [16] = experiment: In vivo inhibition of xanthine oxidase in potassium oxonate-induced hyperuricemia mouse model assessed as reduction in enzyme activity in liver at 20 mg/kg relative to control; format: functional
# Rattus norvegicus [17] = experiment: Antiarthritic activity against MSU-induced acute gout arthritis rat model assessed as degree of ankle joint swelling at 5 mg/kg after 2 hrs (reference value: 7.5 +/- 1.6); format: functional
# Rattus norvegicus [18] = experiment: Antiarthritic activity against MSU-induced acute gout arthritis rat model assessed as degree of ankle joint swelling at 10 mg/kg after 2 hrs (reference value: 7.5 +/- 1.6); format: functional
# Rattus norvegicus [19] = experiment: Antiarthritic activity against MSU-induced acute gout arthritis rat model assessed as degree of ankle joint swelling at 20 mg/kg after 2 hrs (reference value: 7.5 +/- 1.6); format: functional
# Rattus norvegicus [20] = experiment: Antiarthritic activity against MSU-induced acute gout arthritis rat model assessed as degree of ankle joint swelling at 5 mg/kg after 4 hrs (reference value: 8.8 +/- 1.7); format: functional
# Rattus norvegicus [21] = experiment: Antiarthritic activity against MSU-induced acute gout arthritis rat model assessed as degree of ankle joint swelling at 10 mg/kg after 4 hrs (reference value: 8.8 +/- 1.7); format: functional
# Rattus norvegicus [22] = experiment: Antiarthritic activity against MSU-induced acute gout arthritis rat model assessed as degree of ankle joint swelling at 20 mg/kg after 4 hrs (reference value: 8.8 +/- 1.7); format: functional
# Rattus norvegicus [23] = experiment: Antiarthritic activity against MSU-induced acute gout arthritis rat model assessed as degree of ankle joint swelling at 5 mg/kg after 8 hrs (reference value: 7.8 +/- 1.6); format: functional
# Rattus norvegicus [24] = experiment: Antiarthritic activity against MSU-induced acute gout arthritis rat model assessed as degree of ankle joint swelling at 10 mg/kg after 8 hrs (reference value: 7.8 +/- 1.6); format: functional
# Rattus norvegicus [25] = experiment: Antiarthritic activity against MSU-induced acute gout arthritis rat model assessed as degree of ankle joint swelling at 20 mg/kg after 8 hrs (reference value: 7.8 +/- 1.6); format: functional
# Rattus norvegicus [26] = experiment: Antiarthritic activity against MSU-induced acute gout arthritis rat model assessed as degree of ankle joint swelling at 5 mg/kg after 12 hrs (reference value: 6.6 +/- 1.5); format: functional
# Rattus norvegicus [27] = experiment: Antiarthritic activity against MSU-induced acute gout arthritis rat model assessed as degree of ankle joint swelling at 10 mg/kg after 12 hrs (reference value: 6.6 +/- 1.5); format: functional
# Rattus norvegicus [28] = experiment: Antiarthritic activity against MSU-induced acute gout arthritis rat model assessed as degree of ankle joint swelling at 20 mg/kg after 12 hrs (reference value: 6.6 +/- 1.5); format: functional
# Rattus norvegicus [29] = experiment: Antiarthritic activity against MSU-induced acute gout arthritis rat model assessed as degree of ankle joint swelling at 5 mg/kg after 24 hrs (reference value: 5.6 +/- 1.8); format: functional
# Rattus norvegicus [30] = experiment: Antiarthritic activity against MSU-induced acute gout arthritis rat model assessed as degree of ankle joint swelling at 10 mg/kg after 24 hrs (reference value: 5.6 +/- 1.8); format: functional
# Rattus norvegicus [31] = experiment: Antiarthritic activity against MSU-induced acute gout arthritis rat model assessed as degree of ankle joint swelling at 20 mg/kg after 24 hrs (reference value: 5.6 +/- 1.8); format: functional
# Rattus norvegicus [32] = experiment: Antiarthritic activity against MSU-induced acute gout arthritis rat model assessed as degree of ankle joint swelling at 5 mg/kg after 48 hrs (reference value: 3.4 +/- 0.5); format: functional
# Rattus norvegicus [33] = experiment: Antiarthritic activity against MSU-induced acute gout arthritis rat model assessed as degree of ankle joint swelling at 10 mg/kg after 48 hrs (reference value: 3.4 +/- 0.5); format: functional
# Rattus norvegicus [34] = experiment: Antiarthritic activity against MSU-induced acute gout arthritis rat model assessed as degree of ankle joint swelling at 20 mg/kg after 48 hrs (reference value: 3.4 +/- 0.5); format: functional
# Rattus norvegicus [35] = species on record: Rattus norvegicus; experiment: Down regulation of MSU-induced NLRP3 protein expression in synovial tissue of MSU-induced acute gout arthritis rat model by western blot analysis; format: functional, organism-based
# Rattus norvegicus [36] = species on record: Rattus norvegicus; experiment: Down regulation of MSU-induced ASC protein expression in synovial tissue of MSU-induced acute gout arthritis rat model by western blot analysis; format: functional, organism-based
# Rattus norvegicus [37] = species on record: Rattus norvegicus; experiment: Down regulation of MSU-induced caspase-1 protein expression in synovial tissue of MSU-induced acute gout arthritis rat model by western blot analysis; format: functional, organism-based
# Mus musculus [38] = experiment: In vivo inhibition of xanthine oxidase in mouse assessed as reduction of enzyme activity in liver at 5 mg/kg relative to control; format: functional
# Mus musculus [39] = experiment: In vivo inhibition of xanthine oxidase in mouse assessed as reduction in enzyme activity in liver at 10 mg/kg relative to control; format: functional
# Mus musculus [40] = experiment: In vivo inhibition of xanthine oxidase in mouse assessed as reduction in enzyme activity in liver at 20 mg/kg relative to control; format: functional
# [41] = Cytotoxicity against human THP-1 cells; format: cell-based
# Mus musculus [42] = experiment: Antiarthritic activity in potassium oxonate-induced hyperuricemia mouse model assessed as reduction in uric acid level in serum at 10 mg/kg; format: functional, organism-based
# T1 sequence (P47989 whole entry): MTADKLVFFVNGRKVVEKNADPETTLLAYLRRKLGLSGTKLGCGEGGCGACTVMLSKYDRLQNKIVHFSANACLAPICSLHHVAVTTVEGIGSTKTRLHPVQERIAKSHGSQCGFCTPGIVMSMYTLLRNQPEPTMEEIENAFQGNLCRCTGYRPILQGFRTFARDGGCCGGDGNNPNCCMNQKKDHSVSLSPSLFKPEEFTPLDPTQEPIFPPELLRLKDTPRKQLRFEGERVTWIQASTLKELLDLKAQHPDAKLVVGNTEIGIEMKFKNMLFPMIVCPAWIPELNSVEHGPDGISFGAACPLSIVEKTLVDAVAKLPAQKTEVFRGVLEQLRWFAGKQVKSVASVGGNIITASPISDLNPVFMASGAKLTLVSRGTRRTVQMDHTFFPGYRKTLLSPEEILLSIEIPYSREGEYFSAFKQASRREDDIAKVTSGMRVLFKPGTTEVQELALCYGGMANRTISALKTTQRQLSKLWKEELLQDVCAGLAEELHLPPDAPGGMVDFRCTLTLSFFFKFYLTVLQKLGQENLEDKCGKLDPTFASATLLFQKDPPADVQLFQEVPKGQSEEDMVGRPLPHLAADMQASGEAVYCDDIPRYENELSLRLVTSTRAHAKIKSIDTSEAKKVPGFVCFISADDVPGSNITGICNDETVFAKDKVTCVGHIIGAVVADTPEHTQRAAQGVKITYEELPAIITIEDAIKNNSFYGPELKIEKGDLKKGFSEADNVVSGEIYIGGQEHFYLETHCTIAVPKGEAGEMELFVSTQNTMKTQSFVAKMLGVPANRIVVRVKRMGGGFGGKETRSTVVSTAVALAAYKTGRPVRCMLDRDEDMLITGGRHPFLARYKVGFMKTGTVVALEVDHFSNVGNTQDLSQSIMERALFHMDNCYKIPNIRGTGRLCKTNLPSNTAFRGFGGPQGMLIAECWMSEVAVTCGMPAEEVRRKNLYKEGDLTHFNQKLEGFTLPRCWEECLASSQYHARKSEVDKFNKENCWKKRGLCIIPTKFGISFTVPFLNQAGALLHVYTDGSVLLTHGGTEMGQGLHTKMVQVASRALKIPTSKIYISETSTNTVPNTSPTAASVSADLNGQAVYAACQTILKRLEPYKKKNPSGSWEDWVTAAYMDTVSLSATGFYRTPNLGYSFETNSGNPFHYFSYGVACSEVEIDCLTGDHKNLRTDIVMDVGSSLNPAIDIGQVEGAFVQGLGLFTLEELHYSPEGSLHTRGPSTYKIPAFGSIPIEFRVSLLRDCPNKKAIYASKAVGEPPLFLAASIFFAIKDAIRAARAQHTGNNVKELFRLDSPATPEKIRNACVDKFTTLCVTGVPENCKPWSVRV
# Chain of NACHT, LRR and PYD domains-containing protein 3 (Q96P20 whole entry, the tested form may be a part): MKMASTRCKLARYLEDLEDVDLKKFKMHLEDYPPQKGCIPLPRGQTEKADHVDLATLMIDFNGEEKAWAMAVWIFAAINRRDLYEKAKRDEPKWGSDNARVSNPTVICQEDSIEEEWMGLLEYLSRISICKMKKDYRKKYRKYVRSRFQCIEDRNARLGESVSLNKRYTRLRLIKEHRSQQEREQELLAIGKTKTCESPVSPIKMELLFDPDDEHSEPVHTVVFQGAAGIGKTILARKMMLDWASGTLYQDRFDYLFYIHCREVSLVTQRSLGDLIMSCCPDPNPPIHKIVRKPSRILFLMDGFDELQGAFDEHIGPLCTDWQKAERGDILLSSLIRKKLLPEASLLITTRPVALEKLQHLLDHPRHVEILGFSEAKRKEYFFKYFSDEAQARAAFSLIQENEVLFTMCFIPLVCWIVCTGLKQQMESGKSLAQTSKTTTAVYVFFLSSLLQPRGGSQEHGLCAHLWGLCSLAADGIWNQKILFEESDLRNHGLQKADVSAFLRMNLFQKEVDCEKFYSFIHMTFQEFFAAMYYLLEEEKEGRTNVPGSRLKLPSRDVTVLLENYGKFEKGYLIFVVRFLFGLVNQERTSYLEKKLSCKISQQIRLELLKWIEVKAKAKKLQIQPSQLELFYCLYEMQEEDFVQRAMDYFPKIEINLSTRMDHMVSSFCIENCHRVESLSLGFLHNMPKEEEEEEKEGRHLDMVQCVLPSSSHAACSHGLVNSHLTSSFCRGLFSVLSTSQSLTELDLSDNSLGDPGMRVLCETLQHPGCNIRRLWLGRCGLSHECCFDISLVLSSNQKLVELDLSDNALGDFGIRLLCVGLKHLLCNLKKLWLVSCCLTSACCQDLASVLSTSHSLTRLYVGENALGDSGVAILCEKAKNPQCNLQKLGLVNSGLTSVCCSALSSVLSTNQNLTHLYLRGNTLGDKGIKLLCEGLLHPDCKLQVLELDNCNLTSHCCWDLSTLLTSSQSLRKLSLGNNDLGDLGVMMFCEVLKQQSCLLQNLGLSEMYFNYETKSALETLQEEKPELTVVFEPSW
compound,measurement,setting,value
C/C(=N\NS(=O)(=O)c1cccc([N+](=O)[O-])c1)c1nc2ccccc2o1,IC50,[1],> 50 µM
CCCCS(=O)(=O)N/N=C(\C)c1nc2ccccc2o1,IC50,[1],> 50 µM
C/C(=N\NS(=O)(=O)c1ccc(Br)cc1)c1nc2ccccc2[nH]1,IC50,[1],> 50 µM
COc1cc2c(c(OC)c1OC)-c1ccc(OC)c(=O)cc1[C@@H](NC(C)=O)CC2 [COLCHICINE],Activity,Rattus norvegicus [2],4.9
same,Activity,Rattus norvegicus [3],4.3
same,Activity,Rattus norvegicus [4],4
same,Activity,Rattus norvegicus [5],3.5
same,Activity,Rattus norvegicus [6],2.8
same,Activity,Rattus norvegicus [7],2
same,inhibition,Rattus norvegicus [8],Active
same,inhibition,Rattus norvegicus [9],Active
same,inhibition,Rattus norvegicus [10],Active
COc1ccc(S(=O)(=O)N/N=C(\C)c2nc3ccccc3[nH]2)cc1,IC50,[1],> 50 µM
COc1ccc(C(=O)O/N=C(\C)c2nc3ccccc3[nH]2)cc1,IC50,[1],> 50 µM
COc1ccc(S(=O)(=O)N/N=C(\C)c2nc3ccccc3o2)cc1,IC50,[1],4.2 µM
same,inhibition (INH),[11],Active
same,IC50,[12],7.5 µM
same,Activity,Mus musculus [13],Active
same,inhibition in vivo at 5 mg/kg,Mus musculus [14],19.6%
same,inhibition in vivo at 10 mg/kg,Mus musculus [15],30.6%
same,inhibition in vivo at 20 mg/kg,Mus musculus [16],44.1%
same,Activity,Rattus norvegicus [17],6.5
same,Activity,Rattus norvegicus [18],6
same,Activity,Rattus norvegicus [19],5.5
same,Activity,Rattus norvegicus [20],6.8
same,Activity,Rattus norvegicus [21],6.1
same,Activity,Rattus norvegicus [22],5
same,Activity,Rattus norvegicus [23],5.9
same,Activity,Rattus norvegicus [24],5.4
same,Activity,Rattus norvegicus [25],4.2
same,Activity,Rattus norvegicus [26],6
same,Activity,Rattus norvegicus [27],4.5
same,Activity,Rattus norvegicus [28],3.9
same,Activity,Rattus norvegicus [29],4.9
same,Activity,Rattus norvegicus [30],2.5
same,Activity,Rattus norvegicus [31],2.2
same,Activity,Rattus norvegicus [32],2.9
same,Activity,Rattus norvegicus [33],1.8
same,Activity,Rattus norvegicus [34],1.6
same,inhibition,Rattus norvegicus [35],Dose-dependent effect
same,inhibition,Rattus norvegicus [36],Dose-dependent effect
same,inhibition,Rattus norvegicus [37],Dose-dependent effect
same,inhibition in vivo at 5 mg/kg,Mus musculus [38],3.6%
same,inhibition in vivo at 10 mg/kg,Mus musculus [39],4.6%
same,inhibition in vivo at 20 mg/kg,Mus musculus [40],7.6%
same,CC50,[41],250 µM
C/C(=N\NS(=O)(=O)c1ccc(Br)cc1)c1nc2ccccc2o1,IC50,[1],> 50 µM
C/C(=N\NS(=O)(=O)c1ccc([N+](=O)[O-])cc1)c1nc2ccccc2[nH]1,IC50,[1],> 50 µM
C/C(=N\OC(=O)Cc1ccccc1)c1nc2ccccc2[nH]1,IC50,[1],> 50 µM
C/C(=N\NS(=O)(=O)c1ccccc1)c1nc2ccccc2[nH]1,IC50,[1],> 50 µM
CCCS(=O)(=O)N/N=C(\C)c1nc2ccccc2[nH]1,IC50,[1],> 50 µM
C/C(=N\NS(=O)(=O)c1ccccc1)c1nc2ccccc2o1,IC50,[1],> 50 µM
O=C(/C=C/c1ccc(O)cc1)c1ccc(O)cc1O [ISOLIQUIRITIGENIN],IC50,[12],10.1 µM
same,CC50,[41],250 µM
C/C(=N\NS(=O)(=O)c1ccc([N+](=O)[O-])cc1)c1nc2ccccc2o1,IC50,[1],> 50 µM
C/C(=N\NS(=O)(=O)c1ccc(C)cc1)c1nc2ccccc2o1,CC50,[41],250 µM
Oc1ncnc2[nH]ncc12 [ALLOPURINOL],Activity,Mus musculus [42],Active
same,inhibition in vivo at 10 mg/kg,Mus musculus [15],47.9%
same,inhibition in vivo at 10 mg/kg,Mus musculus [39],25.3%
